“Also recorded” adds a separate entry of the source.
Assays:
[1] = tested on: Japanese quail testis (gonadal growth); assay: IOP infusion, testicular growth under long-day condition; type: in vivo, Japanese quail (Coturnix coturnix japonica); conditions: long-day condition (p<0.05)
Method: (§1) To assess directly whether T3 mediates photoperiodic response of gonads, the inventors studied the effect of intracerebroventricular (i.c.v.) infusion of T3 on gonadal growth. Vehicle and several doses of T3 and T4 were infused to third ventricle by osmotic mini pump and testicular size was measured before and after the infusion. […] Therefore, the inventors furthermore examined the effect of IOP infusion under long-day condition (FIG. 10b).

[2] = tested on: Japanese quail gonadotropin release and gonadal growth; conditions: cited from earlier work; for photoperiodically induced gonadotropin secretion and gonadal growth: peripheral injection of pharmacological dose
[3] = tested on: Japanese quail testis (gonadal growth); assay: intracerebroventricular infusion by osmotic mini pump, testicular growth under short-day condition; type: in vivo, Japanese quail (Coturnix coturnix japonica); conditions: for testicular growth: i.c.v. infusion to third ventricle, several doses, short-day condition (light 8 hrs, dark 16 hrs), male Japanese quail
Method: as §1

[4] = cited from earlier work

| Compound | testicular growth [1] | photoperiodically induced gonadotropin secretion and gonadal growth [2] | testicular growth [3] | testicular growth at the largest dose ([3]; i.c.v. infusion, largest dose, short-day condition) | dose giving the greatest effect ([3]; intracerebroventricular administration to Japanese quail) [ng per day] | fraction of T4 converted to T3 in the blood [4] | fraction of T4 converted to reverse T3 (RT3) in the blood [4] [%] | relative effectiveness to mimic gonadotropin release ([2]; peripheral injection) |
| --- | --- | --- | --- | --- | --- | --- | --- | --- |
| CCC(Cc1c(I)cc(I)c(N)c1I)C(=O)O (stereo not shown) [IOP, lopanoic acid] | can reduce testicular growth; also recorded: reduces testicular growth | – | – | – | – | – | – | – |
| N[C@@H](Cc1cc(I)c(Oc2ccc(O)c(I)c2)c(I)c1)C(=O)O [T3, 3,5,3′-triiodothyronine] | – | can mimic | mimics testicular growth with dose dependent manner | testicular growth was not observed | 0.3 | – | – | – |
| N[C@@H](Cc1cc(I)c(Oc2cc(I)c(O)c(I)c2)c(I)c1)C(=O)O [T4, Thyroxine] | – | can mimic | little effect | – | – | about ⅓ | ~45 | more effective than T3 |

Source: patent US20040242525A1, “Method for promoting gonadal growth in an animal” (Nagoya University, priority 2003, published 2004)
